Assay results: patent publication US20230234920A1, “Azirine Containing Compounds as Anti-Angiogenesis Agents and a Process for the Preparation Thereof” (COUNCIL OF SCIENTIFIC & INDUSTRIAL RESEARCH, priority 2020, published 2023)
pIC50: −log10 of the molar value.

Legend:
[1] = system: MDA-MB 468 triple negative breast cancer; experiment: MDA-MB 468 xenograft mouse model; format: in vivo, nude mice
Description: FIG. 13 represents Effect of Compound 1 on triple negative breast cancer celline MDA-MB 468 in xenograft mouse model.
A nude mice model bearing orthotopic HCT116 colon tumor or MDA-MB 468 was used to evaluate the anti-tumor angiogenesis effect of Compound 1 in vivo (FIG. 12). […] To investigate the effects of Compound 1 on angiogenesis and molecular targets in vivo, we examined the expression level of endothelial-specific marker (CD31) in tumor samples.

[2] = system: HUVECs protein lysate; experiment: Drug Affinity Receptor Target (DART) analysis; format: binding, human; settings: 10 mM
Protocol: HUVECs with confluency of 80-85% in 100 mm dish were trypsinised and the media was removed and washed twice with 1×PBS. These cells were lysed with lysis buffer at 4° C. Control and treatment group with […] of protein were incubated with vehicle and Compound 1 at a concentration of 10 mM for 15-30 mins at RT with gentle shaking. Then different proteases like thermolysin (10 μg/15 μL) and pronase at […] were added to both the control and treatment groups for 5-10 mins at RT. Digestion was stopped by adding protease inhibitor (20×) at specific interval and allowed to incubate at 4° C. for 10 mins. 6×SDS-PAGE loading dye was added to all the respective samples and heated at 70° C. for 10 mins. SDS-PAGE was performed for the given control and treatment group samples and then the gel was stained with 0.05% Coomassie Brilliant Blue (CBB-R250). After destaining the gel, bands of different molecular weight of treatment and control groups were excised off from the gel and further employed for the protein sequence analysis through LC/MS-MS (Liquid chromatography/Mass spectroscopy).

[3] = system: Balb/c mice; experiment: Ear angiogenesis assay; format: in vivo; settings: 750 nM along with VEGF and bFGF
Protocol: (A) Control (0.1% DMSO), (B) sunitinib and (C) Compound 1 at their indicated concentration dissolved in 100 μL of 1×PBS injected into the […] of Balb/c mice (5 mice/treatment group). After 7 days of treatment ears were harvested, cryo-sectioned at […] thickness. CD31 immunostained and photographed under inverted microscope at 20× magnification. (B) Vasculature was quantified by counting total macro and micro blood vessels. Plotted graph is representative of four independent experiments and are represented as mean±SEM with significant difference compared with control at *p<0.05.
Sterile 1×PBS having mouse VEGF (50 ng/mL), bFGF (50 ng/mL), Heparin (10 mg/mL) and sunitinib (2 μM) as a positive control along with compound 1 (750 nM) as a test compound were injected subcutaneously into the ear of 8- to 12-week old male Balb/c mice. Equal volume of 1×PBS with all components except drug was used as a control and was injected in contra lateral ear. After 6 days, mice were sacrificed and the ears were excised and embedded in OCT for cryo-sectioning. Frozen sections of […] sizes were immunostained with endothelial cell markers anti CD31 and anti PECAM 1 antibody. This was quantified by total number of blood vessels count.

[4] = system: HUVECs; experiment: Capillary-like tube formation assay (tubulogenesis); format: cell-based, human
How it was run: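 HUVECs seeded on Matrigel (regular or reduced growth factor) in incomplete ECM basal medium, treated with compound for 6 h; VEGF 50 ng/mL positive and sunitinib 50 nM negative controls. Calcein-AM-stained tubules imaged at 10× and tubule length expressed as % of 0.1% DMSO vehicle.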

- protection of protein band against protease digestion [2]: Intact protein band was observed
SMILES: CCOC(=O)C1N=C1CCc1ccc(OC)cc1 (racemic) [Compound 1, Ethyl 3-(4-methoxyphenethyl)-2H-azirine-2-carboxylate]
- tumor growth ([1]; 25 mg/kg): regresses tumor growth similar to that of sunitinib
- tumor growth ([1]; 40 mg/kg): regresses tumor growth better than the standard compound sunitinib
- CD31 expression and micro-vessels density [3]: reduced CD31 expression and micro-vessels density
- anti-angiogenic activity on primary tubulogenesis screening [4]: 75 nM
- tubule formation ([4]; 25 nM, 6 h): complete angiogenesis
- tubule formation as compared to control ([4]; 75 nM, 6 h): 50%
- tubule formation ([4]; 100 nM combined with sunitinib at 20 nM, 6 h): approximately 15%
- tubule formation ([4]; 250 nM till 125 nM, 6 h): light increase in the tubule formation
- tubulogenesis inhibition ([4]; 10 μM till 500 nM, 6 h): complete tubulogenesis inhibition
- pIC50 ([4]; Homo sapiens, HUVEC, endothelial tubule network assay, anti-angiogenic activity, read-out: IC50 value): 7.12
- remarks ([4]; remark on IC50 versus sunitinib): comparable to sunitinib
- toxic effect on the cells ([4]; till 500 nM, 6 h): no toxic effect
